Measurements reported in patent US20260021114A1, “COMPOSITION FOR LOWERING BLOOD LIPIDS AND CHOLESTEROL, PREPARATION METHOD THEREFOR, AND APPLICATION THEREOF” (Health and Happiness (H&H) Hong Kong Limited, priority 2022, published 2026).
Marks after values point to notes of the source that are not given here.

Experiments:
[1] = tested on: zebrafish hyperlipidemia model; test: Efficacy evaluation of lowering triglyceride (Oil Red O staining of tail blood vessels); assay type: in vivo
Procedure: 5 dpf melanin allele mutant translucent Albino strain zebrafish were randomly selected and put in beakers, with 30 fish per beaker. The atorvastatin calcium and samples (see Table 3 for final concentration) were administered by dissolving in water respectively, and the normal control group and the model control group were set at the same time, and the volume of each beaker was 25 mL. Except for the normal control group, all other experimental groups were given high-fat feed in water (the high-fat feed was glucose with a final concentration of 3wt % and egg yolk powder with a final concentration of 1.5 mg/mL) to establish a zebrafish hyperlipidemia model. The samples were co-processed with high-fat feed for 15 hours (co-processed for 7.5 hours per day and kept in fish farming water at 28° C. for the rest of the day). After treatment at 28° C. for 48 hours, Oil Red O was given for whole-body fat staining. After the staining, 10 zebrafish from each experimental group were randomly selected and photographed under a dissection microscope. […] The staining intensity of the zebrafish tail blood vessels was analyzed, and the efficacy of atorvastatin calcium and sample in lowering triglycerides was evaluated based on the statistical analysis results of this indicator. Statistical processing results are expressed as mean +SE. […]

hmgcra gene = test: Effect on the hmgcra gene expression levels (q-PCR); assay type: in vivo, zebrafish
Procedure: 5 dpf melanin allele mutant translucent Albino strain zebrafish were randomly selected and put in beakers, with 30 fish per beaker. The atorvastatin calcium and samples (see Table 7 for final concentration) were administered by dissolving in water respectively, and the normal control group and the model control group were set at the same time, and the volume of each beaker was 25 mL. Except for the normal control group, all other experimental groups were given high-fat feed in water (the high-fat feed was glucose with a final concentration of 3 wt % and egg yolk powder with a final concentration of 1.5 mg/mL) to establish a zebrafish hyperlipidemia model. The samples were co-processed with high-fat feed for 15 hours (co-processed for 7.5 hours per day). After treatment at 28° C. for 48 hours, total RNA of 2.00 μg zebrafish sample was taken, and 20.0 μL cDNA was synthesized according to the instructions of the cDNA first chain synthesis kit. The expression of β-actin and hmgcra genes was detected by q-PCR (see Table 6 for the sequence of primers). The RNA phase of hmgcra gene was calculated using […] as the internal reference of gene expression. Statistical processing results are expressed as mean +SE. Statistical analysis was performed with SPSS26.0 software, p<0.05 indicated a statistically significant difference.

[2] = tested on: zebrafish hyperlipidemia model; test: Efficacy evaluation of lowering cholesterol (cholesterol fluorescent probe, tail blood vessels); assay type: in vivo
Procedure: 5 dpf melanin allele mutant translucent Albino strain zebrafish were randomly selected and put in beakers, with 30 fish per beaker. The atorvastatin calcium and samples (see Table 4 for final concentration) were administered by dissolving in water respectively, and the normal control group and the model control group were set at the same time, and the volume of each beaker was 25 mL. Except for the normal control group, all other experimental groups were given high-fat feed in water (the high-fat feed was glucose with a final concentration of 3wt % and egg yolk powder with a final concentration of 1.5 mg/mL) to establish a zebrafish hyperlipidemia model. The samples were co-processed with high-fat feed for 15 hours (co-processed for 7.5 hours per day and kept in fish farming water at 28° C. for the rest of the day). After treatment at 28° C. for 32 hours, cholesterol fluorescent probe (final concentration 1 mg/mL) was administered. After continuing the treatment for 16 hours, 10 zebrafish from each experimental group were randomly selected and photographed under a fluorescence microscope. […] The cholesterol fluorescence intensity of the zebrafish tail blood vessels was analyzed, and the efficacy lowering cholesterol of the samples was evaluated by the statistical analysis results of this index. Statistical processing results are expressed as mean±SE. […]

model zebrafish = test: MTC determination in zebrafish hyperlipidemia model; assay type: in vivo
Procedure: 5 dpf melanin allele mutant translucent Albino strain zebrafish were randomly selected and put in beakers, with 30 fish per beaker (experimental group). The atorvastatin calcium and samples (see Table 2 for final concentration) were administered by dissolving in water respectively, and the normal control group and the model control group were set at the same time, and the volume of each beaker was 25 mL. Except for the normal control group, all other experimental groups were given high-fat feed in water (the high-fat feed was glucose with a final concentration of 3 wt % and egg yolk powder with a final concentration of 1.5 mg/mL) to establish a zebrafish hyperlipidemia model. The samples were co-processed with high-fat feed for 15 hours (co-processed for 7.5 hours per day and kept in fish farming water at 28° C. for the rest of the day). During sample processing, the number of dead zebrafish in each experimental group was counted every day and removed in time. After treatment at 28° C. for 48 hours, the minimum toxic concentration (MTC) of atorvastatin calcium and samples to model zebrafish was determined.

CC(C)c1c(C(=O)Nc2ccccc2)c(-c2ccccc2)c(-c2ccc(F)cc2)n1CC[C@@H](O)C[C@@H](O)CC(=O)[O-].CC(C)c1c(C(=O)Nc2ccccc2)c(-c2ccccc2)c(-c2ccc(F)cc2)n1CC[C@@H](O)C[C@@H](O)CC(=O)[O-].[Ca+2] [Atorvastatin calcium]
Triglyceride content (Unit in pixels, mean ± SE) ([1]; 11.6 μg/mL, 48 hours, tail blood vessels staining intensity): 11104 ± 588***^c pixels | lowering of triglycerides compared with the model control group (in words) ([1]; P<0.05 vs model control group): significantly lower triglycerides | Relative expression of hmgcra gene (mean ± SE) (hmgcra gene; 11.6 μg/mL, 48 hours, β-actin internal reference, model control = 1): 0.542 ± 0.003***^a | reduction of hmgcra gene expression levels compared with the model control group (in words) (hmgcra gene; P<0.05 vs model control group): significantly reduce the hmgcra gene expression levels | Cholesterol content (Unit in pixels, mean ± SE) ([2]; 11.6 μg/mL, 48 hours, tail blood vessels cholesterol fluorescence intensity): 122765 ± 11371 pixels | lowering of cholesterol compared with the model control group (in words) ([2]; P<0.05 vs model control group): significantly lower cholesterol | Death rates (%) (model zebrafish; 11.6 μg/mL, n = 30, 48 hours): 0% | Number of deaths (fish) (model zebrafish; 11.6 μg/mL, n = 30, 48 hours): 0 fish | MTC (model zebrafish; model zebrafish, high-fat feed, 28° C. for 48 hours): 11.6 µg/mL
